Experimental data as given in ChEMBL document CHEMBL4145521, “Regioselective synthesis of 3,4-diaryl-5-unsubstituted isoxazoles, analogues of natural cytostatic combretastatin A4” (Eur J Med Chem, 2018).

Key:
Format in all cases: functional
[1] = test system: CAKI-1; assay: Cytotoxicity against human Caki1 cells assessed as cell growth at 10 uM incubated for 48 hrs by sulforhodamine B assay relative to control; settings: CAKI-1, 48 h, read-out: Activity
[2] = test system: UO-31; assay: Cytotoxicity against human UO31 cells assessed as cell growth at 10 uM incubated for 48 hrs by sulforhodamine B assay relative to control; settings: UO-31, 48 h, read-out: Activity
[3] = test system: 786-0; assay: Cytotoxicity against human 786-0 cells incubated for 48 hrs by sulforhodamine B assay; settings: 786-0, 48 h
[4] = test system: Hs-578T; assay: Cytotoxicity against human Hs 578T cells assessed as cell growth at 10 uM incubated for 48 hrs by sulforhodamine B assay relative to control; settings: read-out: Activity
[5] = test system: SK-MEL-28; assay: Cytotoxicity against human SK-MEL-28 cells assessed as cell growth at 0.1 uM incubated for 48 hrs by sulforhodamine B assay relative to control; settings: SK-MEL-28, 48 h, read-out: Activity
[6] = test system: MDA-MB-231; assay: Cytotoxicity against human MDA-MB-231 cells assessed as cell growth at 0.1 uM incubated for 48 hrs by sulforhodamine B assay relative to control; settings: MDA-MB-231, 48 h, read-out: Activity
[7] = test system: MDA-MB-435; assay: Cytotoxicity against human MDA-MB-435 cells assessed as cell growth at 1 uM incubated for 48 hrs by sulforhodamine B assay relative to control; settings: MDA-MB-435, 48 h, read-out: Activity
[8] = test system: SR; assay: Cytotoxicity against human SR cells incubated for 48 hrs by sulforhodamine B assay
[9] = test system: COLO 205; assay: Cytotoxicity against human COLO205 cells assessed as cell growth at 0.01 uM incubated for 48 hrs by sulforhodamine B assay relative to control; settings: COLO 205, 48 h, read-out: Activity
[10] = test system: NCI-H23; assay: Cytotoxicity against human NCI-H23 cells assessed as cell growth at 0.01 uM incubated for 48 hrs by sulforhodamine B assay relative to control; settings: NCI-H23, 48 h, read-out: Activity
[11] = test system: HOP-92; assay: Cytotoxicity against human HOP92 cells assessed as cell growth at 1 uM incubated for 48 hrs by sulforhodamine B assay relative to control; settings: HOP-92, 48 h, read-out: Activity
[12] = test system: HOP-92; assay: Cytotoxicity against human HOP92 cells incubated for 48 hrs by sulforhodamine B assay; settings: HOP-92, 48 h
[13] = test system: MOLT-4; assay: Cytotoxicity against human MOLT4 cells assessed as cell growth at 100 uM incubated for 48 hrs by sulforhodamine B assay relative to control; settings: MOLT-4, 48 h, read-out: Activity
[14] = test system: OVCAR-4; assay: Cytotoxicity against human OVCAR4 cells incubated for 48 hrs by sulforhodamine B assay; settings: OVCAR-4, 48 h
[15] = test system: SR; assay: Cytotoxicity against human SR cells assessed as cell growth at 1 uM incubated for 48 hrs by sulforhodamine B assay relative to control; settings: read-out: Activity
[16] = test system: COLO 205; assay: Cytotoxicity against human COLO205 cells assessed as cell growth at 100 uM incubated for 48 hrs by sulforhodamine B assay relative to control; settings: COLO 205, 48 h, read-out: Activity
[17] = test system: NCI/ADR-RES; assay: Cytotoxicity against human NCI/ADR-RES cells assessed as cell growth at 0.01 uM incubated for 48 hrs by sulforhodamine B assay relative to control; settings: read-out: Activity
[18] = test system: ACHN; assay: Cytotoxicity against human ACHN cells assessed as cell growth at 10 uM incubated for 48 hrs by sulforhodamine B assay relative to control; settings: read-out: Activity
[19] = test system: BT-549; assay: Cytotoxicity against human BT549 cells assessed as cell growth at 0.1 uM incubated for 48 hrs by sulforhodamine B assay relative to control; settings: BT-549, 48 h, read-out: Activity
[20] = test system: HCT-116; assay: Cytotoxicity against human HCT116 cells assessed as cell growth at 10 uM incubated for 48 hrs by sulforhodamine B assay relative to control; settings: HCT-116, 48 h, read-out: Activity
[21] = test system: MDA-MB-435; assay: Cytotoxicity against human MDA-MB-435 cells assessed as cell growth at 100 uM incubated for 48 hrs by sulforhodamine B assay relative to control; settings: MDA-MB-435, 48 h, read-out: Activity
[22] = test system: SN12C; assay: Cytotoxicity against human SN12C cells assessed as cell growth at 0.01 uM incubated for 48 hrs by sulforhodamine B assay relative to control; settings: read-out: Activity
[23] = test system: LOX IMVI; assay: Cytotoxicity against human LOXIMVI cells assessed as cell growth at 0.01 uM incubated for 48 hrs by sulforhodamine B assay relative to control; settings: read-out: Activity
[24] = test system: HT-29; assay: Cytotoxicity against human HT-29 cells assessed as cell growth at 0.1 uM incubated for 48 hrs by sulforhodamine B assay relative to control; settings: HT-29, 48 h, read-out: Activity
[25] = test system: COLO 205; assay: Cytotoxicity against human COLO205 cells assessed as cell growth at 10 uM incubated for 48 hrs by sulforhodamine B assay relative to control; settings: COLO 205, 48 h, read-out: Activity
[26] = test system: UO-31; assay: Cytotoxicity against human UO31 cells assessed as cell growth at 100 uM incubated for 48 hrs by sulforhodamine B assay relative to control; settings: UO-31, 48 h, read-out: Activity
[27] = test system: HL-60(TB); assay: Cytotoxicity against human HL-60(TB) cells assessed as cell growth at 100 uM incubated for 48 hrs by sulforhodamine B assay relative to control; settings: HL-60, 48 h, read-out: Activity
[28] = test system: A549; assay: Cytotoxicity against human A549/ATCC cells assessed as cell growth at 0.01 uM incubated for 48 hrs by sulforhodamine B assay relative to control; settings: A549, 48 h, read-out: Activity
[29] = test system: RPMI-8226; assay: Cytotoxicity against human RPMI8226 cells incubated for 48 hrs by sulforhodamine B assay; settings: RPMI-8226, 48 h
[30] = test system: Malme-3M; assay: Cytotoxicity against human MALME-3M cells incubated for 48 hrs by sulforhodamine B assay
[31] = test system: SK-MEL-2; assay: Cytotoxicity against human SK-MEL-2 cells incubated for 48 hrs by sulforhodamine B assay; settings: SK-MEL-2, 48 h
[32] = read-out: LC50 (the source's name)
[33] = read-out: pLC50 (the source's name) (converted)

COc1ccc(-c2nocc2-c2cc(OC)c(OC)c(OC)c2)cc1
growth at 10 µM [1]: 36% | growth at 10 µM [2]: 23% | GI50 ([3]; read-out: GI50): 0.174 µM | LC50 ([3]; read-out: LC50): > 100 µM | TGI ([3]; read-out: TGI): 38.6 µM | GI50 ([3]; read-out: pGI50 (converted)): 0.174 µM | LC50 ([3]; read-out: pLC50 (converted)): > 100 µM | TGI ([3]; read-out: pTGI (converted)): 38.9 µM | growth at 10 µM [4]: 28% | growth at 0.1 µM [5]: 61% | growth at 0.1 µM [6]: 72% | growth at 1 µM [7]: -25% | GI50 ([8]; read-out: GI50): 0.0717 µM | CC50 [8, 32]: > 100 µM | TGI ([8]; read-out: TGI): 58.3 µM | GI50 ([8]; read-out: pGI50 (converted)): 0.0724 µM | CC50 [8, 33]: > 100 µM | TGI ([8]; read-out: pTGI (converted)): 58.9 µM | growth at 0.01 µM [9]: 91% | growth at 0.01 µM [10]: 94% | growth at 1 µM [11]: 46% | GI50 ([12]; read-out: GI50): 0.678 µM | LC50 (50% lethal concentration) ([12]; read-out: LC50): > 100 µM | TGI ([12]; read-out: TGI): 50.2 µM | GI50 ([12]; read-out: pGI50 (converted)): 0.676 µM | LC50 (50% lethal concentration) ([12]; read-out: pLC50 (converted)): > 100 µM | TGI ([12]; read-out: pTGI (converted)): 50.1 µM | growth at 100 µM [13]: 5% | GI50 ([14]; read-out: GI50): 0.926 µM | LC50 ([14]; read-out: LC50): > 100 µM | TGI ([14]; read-out: TGI): > 100 µM | GI50 ([14]; read-out: pGI50 (converted)): 0.933 µM | LC50 ([14]; read-out: pLC50 (converted)): > 100 µM | TGI ([14]; read-out: pTGI): > 100 µM | growth at 1 µM [15]: 30% | growth at 100 µM [16]: -40% | growth at 0.01 µM [17]: 92% | growth at 10 µM [18]: 29% | growth at 0.1 µM [19]: 56% | growth at 10 µM [20]: 6% | growth at 100 µM [21]: -9% | growth at 0.01 µM [22]: 107% | growth at 0.01 µM [23]: 94% | growth at 0.1 µM [24]: 13% | growth at 10 µM [25]: -27% | growth at 100 µM [26]: -27% | growth at 100 µM [27]: -15% | growth at 0.01 µM [28]: 100% | GI50 ([29]; read-out: GI50): 0.44 µM | CC50 [29, 32]: > 100 µM | TGI ([29]; read-out: TGI): 30.5 µM | GI50 ([29]; read-out: pGI50 (converted)): 0.437 µM | CC50 [29, 33]: > 100 µM | TGI ([29]; read-out: pTGI (converted)): 30.2 µM | LC50 (concentration killing 50% of cells) ([30]; read-out: LC50): > 100 µM | TGI ([30]; read-out: TGI): 45.5 µM | LC50 (concentration killing 50% of cells) ([30]; read-out: pLC50 (converted)): > 100 µM | TGI ([30]; read-out: pTGI (converted)): 45.7 µM | GI50 ([31]; read-out: GI50): 0.0664 µM | CC50 [31, 32]: > 100 µM | TGI ([31]; read-out: TGI): 69.2 µM | GI50 ([31]; read-out: pGI50 (converted)): 0.0661 µM | CC50 [31, 33]: > 100 µM | TGI ([31]; read-out: pTGI (converted)): 69.2 µM
